Values of other authors, collected in patent US20230110485A1, “MULTI-LAYER PARTICLES OF FUNCTIONAL INGREDIENTS AND METHODS OF MAKING THE SAME” (Nulixir Inc., priority 2021, published 2023).

How the values were obtained:
[1] = water and n-octanol; categorization at pH = 7 unless stated otherwise
[2] = test system: many strains of fungi

| Molecule | logP [1] | inhibitory activity against fungi [2] |
| --- | --- | --- |
| (-)-schisandrin C | ~3.5 |  |
| COc1cc2c(c(OC)c1OC)-c1c(cc3c(c1OC)OCO3)CC(C)C(C)C2 (single isomer, unassigned; (-)) [(-)-schisandrin B] | ~4 |  |
| O=CC=Cc1ccccc1 [Cinnamaldehyde] |  | strong inhibitory activity |
| COc1cc2c(c(OC)c1OC)-c1c(cc(OC)c(OC)c1OC)C[C@](C)(O)[C@@H](C)C2 [schisandrol A] | ~3.4 |  |
| COc1cc(/C=C/c2ccccc2)oc(=O)c1 [5,6-dehydrokawain] | ~2.9 |  |
